# Assays:
# Assay in all cases: DSF thermal shift assay
# Type in all cases: binding
# Details in all cases: inhibitor 10 μM, protein 2 μM
# [1] = target: T1, AAK1 (Homo sapiens, UniProt Q2M2I8)
# T1 construct: purchased in-house DSF (thermal shift) panel per Fedorov et al; IC50 follow-up at Reaction Biology Corp
# Procedure: (§1) Differences in the melting temperature (ΔTm) were measured as described by Fedorov et al.. Purified proteins were buffered in 25 mM HEPES (pH 7.5), 500 mM NaCl and were assayed in a 384-well plate with a final protein concentration of 2 μM in 10 μL assay volume. Inhibitors were added to a final concentration of 10 μM using an ECHO 550 acoustic dispenser (Labcyte, San José, CA, USA). As a fluorescence probe, SYPRO-Orange (Molecular Probes, Eugene, OR, USA) was added in a 1:5000 dilution. […] Data were analyzed through Boltzmann equation in the Protein Thermal Shift software (Applied Biosystems, Waltham, MA, USA). Samples were measured in technical duplicates.
# [2] = target: T2, ABL1 (Homo sapiens, UniProt P00519)
# T2 construct: purchased in-house DSF (thermal shift) panel per Fedorov et al; IC50 follow-up at Reaction Biology Corp
# Procedure: as §1
# [3] = target: T3, BMX (Homo sapiens, UniProt P51813)
# T3 construct: purchased in-house DSF (thermal shift) panel per Fedorov et al; IC50 follow-up at Reaction Biology Corp
# Procedure: as §1
# [4] = target: T4, BRAF (Homo sapiens, UniProt P15056)
# T4 construct: purchased in-house DSF (thermal shift) panel per Fedorov et al
# Procedure: as §1
# [5] = target: T5, CAMK1D (Homo sapiens, UniProt Q8IU85)
# T5 construct: purchased in-house DSF (thermal shift) panel per Fedorov et al; IC50 follow-up at Reaction Biology Corp
# T5 sequence (Q8IU85 whole entry): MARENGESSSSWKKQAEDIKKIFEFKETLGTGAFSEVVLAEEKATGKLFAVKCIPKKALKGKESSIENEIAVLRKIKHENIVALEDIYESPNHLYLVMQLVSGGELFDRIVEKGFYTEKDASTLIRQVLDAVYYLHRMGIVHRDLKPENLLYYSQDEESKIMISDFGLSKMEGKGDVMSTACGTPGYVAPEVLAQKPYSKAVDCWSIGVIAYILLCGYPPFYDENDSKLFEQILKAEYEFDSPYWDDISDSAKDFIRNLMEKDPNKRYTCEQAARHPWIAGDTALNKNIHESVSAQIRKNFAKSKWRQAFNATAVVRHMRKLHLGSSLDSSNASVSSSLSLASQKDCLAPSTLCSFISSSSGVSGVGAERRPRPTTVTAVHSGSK
# Procedure: as §1
# [6] = target: T6, CAMK2D (Homo sapiens, UniProt Q13557)
# T6 construct: purchased in-house DSF (thermal shift) panel per Fedorov et al
# T6 sequence (Q13557 whole entry): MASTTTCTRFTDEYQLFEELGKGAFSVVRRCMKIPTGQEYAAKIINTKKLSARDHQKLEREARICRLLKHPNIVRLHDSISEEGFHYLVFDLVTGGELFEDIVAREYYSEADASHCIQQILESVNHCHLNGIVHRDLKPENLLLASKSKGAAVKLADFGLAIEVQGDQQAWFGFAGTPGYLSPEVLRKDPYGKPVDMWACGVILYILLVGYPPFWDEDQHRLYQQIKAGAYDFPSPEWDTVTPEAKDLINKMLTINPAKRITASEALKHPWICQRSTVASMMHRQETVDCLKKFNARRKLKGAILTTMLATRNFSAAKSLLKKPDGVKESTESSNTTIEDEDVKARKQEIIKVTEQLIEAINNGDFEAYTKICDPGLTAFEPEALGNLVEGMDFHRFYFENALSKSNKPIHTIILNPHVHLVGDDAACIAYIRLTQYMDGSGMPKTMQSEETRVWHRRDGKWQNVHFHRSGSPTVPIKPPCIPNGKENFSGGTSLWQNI
# Procedure: as §1
# [7] = target: T7, CASK (Homo sapiens, UniProt O14936)
# T7 construct: purchased in-house DSF (thermal shift) panel per Fedorov et al; IC50 follow-up at Reaction Biology Corp
# Procedure: as §1
# [8] = target: T8, CDK2 (Homo sapiens, UniProt P24941)
# T8 construct: purchased in-house DSF (thermal shift) panel per Fedorov et al; IC50 follow-up at Reaction Biology Corp
# Procedure: as §1
# [9] = target: T9, CDKL1 (Homo sapiens, UniProt Q00532)
# T9 construct: purchased in-house DSF (thermal shift) panel per Fedorov et al; IC50 follow-up at Reaction Biology Corp
# Procedure: as §1
# [10] = target: T10, CHEK2 (Homo sapiens, UniProt O96017)
# T10 construct: purchased in-house DSF (thermal shift) panel per Fedorov et al; IC50 follow-up at Reaction Biology Corp
# Procedure: as §1
# [11] = target: T11, CK2A1 (Homo sapiens, UniProt P68400)
# T11 construct: purchased in-house DSF (thermal shift) panel per Fedorov et al
# Procedure: as §1
# [12] = target: T12, CSNK2A2 (Homo sapiens, UniProt P19784)
# T12 construct: purchased in-house DSF (thermal shift) panel per Fedorov et al
# T12 sequence (P19784 whole entry): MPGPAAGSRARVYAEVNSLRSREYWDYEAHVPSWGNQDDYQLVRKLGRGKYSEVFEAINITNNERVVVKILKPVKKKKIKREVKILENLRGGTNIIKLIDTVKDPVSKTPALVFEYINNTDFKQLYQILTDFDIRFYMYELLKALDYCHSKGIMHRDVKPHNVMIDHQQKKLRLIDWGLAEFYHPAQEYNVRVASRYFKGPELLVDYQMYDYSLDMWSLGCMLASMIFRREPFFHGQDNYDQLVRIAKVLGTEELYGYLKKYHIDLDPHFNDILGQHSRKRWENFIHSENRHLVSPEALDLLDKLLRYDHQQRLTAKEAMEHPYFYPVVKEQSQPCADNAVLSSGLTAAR
# Procedure: as §1
# [13] = target: T13, DAPK3 (Homo sapiens, UniProt O43293)
# T13 construct: purchased in-house DSF (thermal shift) panel per Fedorov et al
# Procedure: as §1
# [14] = target: T14, DMPK1 (Homo sapiens, UniProt Q09013)
# T14 construct: purchased in-house DSF (thermal shift) panel per Fedorov et al
# Procedure: as §1
# [15] = target: T15, DYRK1A (Homo sapiens, UniProt Q13627)
# T15 construct: purchased in-house DSF (thermal shift) panel per Fedorov et al
# Procedure: as §1
# [16] = target: T16, EPHA2 (Homo sapiens, UniProt P29317)
# T16 construct: purchased in-house DSF (thermal shift) panel per Fedorov et al
# Procedure: as §1
# [17] = target: T17, FGFR2 (Homo sapiens, UniProt P21802)
# T17 construct: purchased in-house DSF (thermal shift) panel per Fedorov et al
# Procedure: as §1
# [18] = target: T18, FGFR3 (Homo sapiens, UniProt P22607)
# T18 construct: purchased in-house DSF (thermal shift) panel per Fedorov et al
# Procedure: as §1
# [19] = target: T19, FLT1 (Homo sapiens, UniProt P17948)
# T19 construct: purchased in-house DSF (thermal shift) panel per Fedorov et al
# Procedure: as §1
# [20] = target: T20, GAK (Homo sapiens, UniProt O14976)
# T20 construct: purchased in-house DSF (thermal shift) panel per Fedorov et al; IC50 follow-up at Reaction Biology Corp
# Procedure: as §1
# [21] = target: T21, GSG2 (Homo sapiens, UniProt Q8TF76)
# T21 construct: purchased in-house DSF (thermal shift) panel per Fedorov et al
# Procedure: as §1
# [22] = target: T22, MAP2K1 (Homo sapiens, UniProt Q02750)
# T22 construct: purchased in-house DSF (thermal shift) panel per Fedorov et al
# Procedure: as §1
# [23] = target: T23, MAP2K4 (Homo sapiens, UniProt P45985)
# T23 construct: purchased in-house DSF (thermal shift) panel per Fedorov et al
# T23 sequence (P45985 whole entry): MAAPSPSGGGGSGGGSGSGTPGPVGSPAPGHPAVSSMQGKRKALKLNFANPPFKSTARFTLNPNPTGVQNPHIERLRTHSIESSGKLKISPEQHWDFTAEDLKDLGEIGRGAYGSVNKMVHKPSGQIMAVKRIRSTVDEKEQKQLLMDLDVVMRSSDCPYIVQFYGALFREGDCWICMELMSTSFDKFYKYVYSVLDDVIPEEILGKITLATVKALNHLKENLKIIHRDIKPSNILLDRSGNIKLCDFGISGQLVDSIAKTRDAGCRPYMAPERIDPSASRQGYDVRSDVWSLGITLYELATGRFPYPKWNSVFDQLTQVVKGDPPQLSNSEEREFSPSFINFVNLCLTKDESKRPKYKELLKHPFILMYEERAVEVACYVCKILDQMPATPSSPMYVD
# Procedure: as §1
# [24] = target: T24, MAP3K5 (Homo sapiens, UniProt Q99683)
# T24 construct: purchased in-house DSF (thermal shift) panel per Fedorov et al
# Procedure: as §1
# [25] = target: T25, MAPK1 (Homo sapiens, UniProt P28482)
# T25 construct: purchased in-house DSF (thermal shift) panel per Fedorov et al; IC50 follow-up at Reaction Biology Corp
# T25 sequence (P28482 whole entry): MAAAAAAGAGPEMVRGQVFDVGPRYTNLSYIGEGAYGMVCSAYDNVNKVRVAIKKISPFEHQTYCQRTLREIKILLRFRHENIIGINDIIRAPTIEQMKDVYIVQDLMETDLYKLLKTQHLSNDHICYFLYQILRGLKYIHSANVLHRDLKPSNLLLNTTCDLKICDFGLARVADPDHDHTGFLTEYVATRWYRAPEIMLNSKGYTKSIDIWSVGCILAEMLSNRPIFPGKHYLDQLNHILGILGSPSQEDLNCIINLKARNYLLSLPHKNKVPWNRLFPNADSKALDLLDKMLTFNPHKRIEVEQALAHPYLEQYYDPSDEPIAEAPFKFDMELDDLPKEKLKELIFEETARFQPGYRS
# Procedure: as §1
# [26] = target: T26, MAPK10 (Homo sapiens, UniProt P53779)
# T26 construct: purchased in-house DSF (thermal shift) panel per Fedorov et al
# Procedure: as §1
# [27] = target: T27, MAPK15 (Homo sapiens, UniProt Q8TD08)
# T27 construct: purchased in-house DSF (thermal shift) panel per Fedorov et al
# T27 sequence (Q8TD08 whole entry): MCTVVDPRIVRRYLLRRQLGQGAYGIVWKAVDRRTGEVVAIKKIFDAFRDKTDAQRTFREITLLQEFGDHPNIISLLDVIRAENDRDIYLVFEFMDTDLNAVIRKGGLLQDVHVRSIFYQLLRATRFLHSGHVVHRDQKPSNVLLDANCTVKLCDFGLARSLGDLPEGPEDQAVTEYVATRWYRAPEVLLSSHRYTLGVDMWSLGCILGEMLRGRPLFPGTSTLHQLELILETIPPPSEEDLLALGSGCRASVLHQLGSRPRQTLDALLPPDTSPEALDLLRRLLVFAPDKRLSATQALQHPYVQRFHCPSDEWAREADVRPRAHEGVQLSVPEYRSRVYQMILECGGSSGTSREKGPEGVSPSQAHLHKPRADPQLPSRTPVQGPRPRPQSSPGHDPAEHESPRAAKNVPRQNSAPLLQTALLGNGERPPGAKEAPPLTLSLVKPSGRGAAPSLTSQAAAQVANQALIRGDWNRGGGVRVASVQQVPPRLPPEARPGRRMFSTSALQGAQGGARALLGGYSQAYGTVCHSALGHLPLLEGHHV
# Procedure: as §1
# [28] = target: T28, MAPK9 (Homo sapiens, UniProt P45984)
# T28 construct: purchased in-house DSF (thermal shift) panel per Fedorov et al
# Procedure: as §1
# [29] = target: T29, MARK3 (Homo sapiens, UniProt P27448)
# T29 construct: purchased in-house DSF (thermal shift) panel per Fedorov et al
# Procedure: as §1
# [30] = target: T30, PAK4 (Homo sapiens, UniProt O96013)
# T30 construct: purchased in-house DSF (thermal shift) panel per Fedorov et al
# Procedure: as §1
# [31] = target: T31, PHKG2 (Homo sapiens, UniProt P15735)
# T31 construct: purchased in-house DSF (thermal shift) panel per Fedorov et al
# Procedure: as §1
# [32] = target: T32, PIM1 (Homo sapiens, UniProt P11309)
# T32 construct: purchased in-house DSF (thermal shift) panel per Fedorov et al
# Procedure: as §1
# [33] = target: T33, RIOK1 (Homo sapiens, UniProt Q9BRS2)
# T33 construct: purchased in-house DSF (thermal shift) panel per Fedorov et al; IC50 follow-up at Reaction Biology Corp
# Procedure: as §1
# [34] = target: T34, RPS6KA6 (Homo sapiens, UniProt Q9UK32)
# T34 construct: purchased in-house DSF (thermal shift) panel per Fedorov et al
# T34 sequence (Q9UK32 whole entry): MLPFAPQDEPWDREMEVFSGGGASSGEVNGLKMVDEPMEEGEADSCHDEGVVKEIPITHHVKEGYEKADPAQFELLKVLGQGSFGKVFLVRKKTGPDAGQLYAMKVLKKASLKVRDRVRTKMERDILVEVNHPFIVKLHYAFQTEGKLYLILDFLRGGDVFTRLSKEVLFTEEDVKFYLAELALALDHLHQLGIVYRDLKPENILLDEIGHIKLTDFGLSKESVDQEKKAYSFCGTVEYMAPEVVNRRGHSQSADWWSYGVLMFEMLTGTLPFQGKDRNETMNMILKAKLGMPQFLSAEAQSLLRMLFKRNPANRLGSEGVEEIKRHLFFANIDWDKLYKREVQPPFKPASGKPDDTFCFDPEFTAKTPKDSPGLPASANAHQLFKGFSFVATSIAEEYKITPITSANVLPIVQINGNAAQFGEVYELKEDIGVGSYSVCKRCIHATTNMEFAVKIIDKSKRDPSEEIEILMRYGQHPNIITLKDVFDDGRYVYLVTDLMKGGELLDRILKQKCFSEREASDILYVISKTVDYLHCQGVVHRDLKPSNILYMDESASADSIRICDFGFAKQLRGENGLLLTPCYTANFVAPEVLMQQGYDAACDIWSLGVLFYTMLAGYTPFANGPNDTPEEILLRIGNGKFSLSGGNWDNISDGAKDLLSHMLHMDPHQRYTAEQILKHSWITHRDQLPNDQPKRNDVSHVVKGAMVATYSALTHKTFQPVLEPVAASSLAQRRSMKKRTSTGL
# Procedure: as §1
# [35] = target: T35, SRPK1 (Homo sapiens, UniProt Q96SB4)
# T35 construct: purchased in-house DSF (thermal shift) panel per Fedorov et al
# T35 sequence (Q96SB4 whole entry): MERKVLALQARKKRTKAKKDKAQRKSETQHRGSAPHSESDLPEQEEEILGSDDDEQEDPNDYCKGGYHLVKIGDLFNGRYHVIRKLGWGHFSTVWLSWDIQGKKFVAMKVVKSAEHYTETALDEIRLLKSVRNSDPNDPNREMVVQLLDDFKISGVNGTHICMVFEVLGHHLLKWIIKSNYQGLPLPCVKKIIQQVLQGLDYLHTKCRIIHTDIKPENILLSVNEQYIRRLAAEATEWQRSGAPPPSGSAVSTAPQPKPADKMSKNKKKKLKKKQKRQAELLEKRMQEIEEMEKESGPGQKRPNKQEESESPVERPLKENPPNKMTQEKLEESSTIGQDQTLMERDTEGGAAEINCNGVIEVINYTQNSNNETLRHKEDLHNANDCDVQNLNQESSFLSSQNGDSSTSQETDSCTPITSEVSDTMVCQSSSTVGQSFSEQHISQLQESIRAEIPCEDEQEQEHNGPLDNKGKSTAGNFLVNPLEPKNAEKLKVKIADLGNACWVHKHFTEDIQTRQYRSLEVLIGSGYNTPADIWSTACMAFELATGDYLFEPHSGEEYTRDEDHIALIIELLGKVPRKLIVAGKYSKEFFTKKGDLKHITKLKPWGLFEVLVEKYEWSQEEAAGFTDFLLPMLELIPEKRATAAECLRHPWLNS
# Procedure: as §1
# [36] = target: T36, STK4 (Homo sapiens, UniProt Q13043)
# T36 construct: purchased in-house DSF (thermal shift) panel per Fedorov et al; IC50 follow-up at Reaction Biology Corp
# Procedure: as §1
# [37] = target: T37, STK6 (Homo sapiens, UniProt O14965)
# T37 construct: purchased in-house DSF (thermal shift) panel per Fedorov et al; IC50 follow-up at Reaction Biology Corp
# Procedure: as §1
# [38] = target: T38, TAF1 (Homo sapiens, UniProt P21675)
# T38 construct: purchased in-house DSF (thermal shift) panel per Fedorov et al
# Procedure: as §1
# [39] = target: T39, TLK1 (Homo sapiens, UniProt Q9UKI8)
# T39 construct: purchased in-house DSF (thermal shift) panel per Fedorov et al; IC50 follow-up at Reaction Biology Corp
# Procedure: as §1
# [40] = target: T40, TTK1 (Homo sapiens, UniProt P33981)
# T40 construct: purchased in-house DSF (thermal shift) panel per Fedorov et al
# Procedure: as §1
# T1 sequence (Q2M2I8 whole entry): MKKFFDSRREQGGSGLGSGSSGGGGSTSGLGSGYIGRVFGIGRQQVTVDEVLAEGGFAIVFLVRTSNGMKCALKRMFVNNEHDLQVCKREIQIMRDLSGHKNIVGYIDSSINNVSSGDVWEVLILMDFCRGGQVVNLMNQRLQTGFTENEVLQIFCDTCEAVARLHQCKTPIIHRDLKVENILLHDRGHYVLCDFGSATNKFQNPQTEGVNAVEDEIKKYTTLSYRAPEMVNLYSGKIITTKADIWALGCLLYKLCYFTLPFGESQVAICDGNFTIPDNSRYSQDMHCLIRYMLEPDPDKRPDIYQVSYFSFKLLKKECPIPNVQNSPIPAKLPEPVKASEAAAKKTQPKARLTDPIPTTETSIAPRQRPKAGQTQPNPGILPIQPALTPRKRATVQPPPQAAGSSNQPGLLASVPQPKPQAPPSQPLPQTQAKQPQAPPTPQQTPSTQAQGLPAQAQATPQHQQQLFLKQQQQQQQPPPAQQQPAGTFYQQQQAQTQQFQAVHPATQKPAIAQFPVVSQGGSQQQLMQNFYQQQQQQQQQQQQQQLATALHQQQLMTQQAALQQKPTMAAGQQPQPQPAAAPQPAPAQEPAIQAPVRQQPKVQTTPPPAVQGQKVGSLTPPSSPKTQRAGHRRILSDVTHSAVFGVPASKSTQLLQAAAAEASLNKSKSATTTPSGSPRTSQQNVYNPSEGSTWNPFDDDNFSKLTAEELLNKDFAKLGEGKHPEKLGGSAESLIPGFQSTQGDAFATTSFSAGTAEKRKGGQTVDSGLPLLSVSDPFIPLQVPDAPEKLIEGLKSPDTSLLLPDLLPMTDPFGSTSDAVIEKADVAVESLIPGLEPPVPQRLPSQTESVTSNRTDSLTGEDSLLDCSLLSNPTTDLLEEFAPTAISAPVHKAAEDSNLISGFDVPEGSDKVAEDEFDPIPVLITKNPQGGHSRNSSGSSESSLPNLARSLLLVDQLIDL
structure (smiles),measurement,setting,value
CCc1cnc(Nc2nc(Cl)ccc2[N+](=O)[O-])nc1N1CCN(Cc2nc3cc(C(F)(F)F)ccc3[nH]2)CC1 [Compound 2],ΔTm at 10 µM,[1],-0.2 °C
same,ΔTm at 10 µM,[2],0.6 °C
same,ΔTm at 10 µM,[3],-0.5 °C
same,ΔTm at 10 µM,[4],-0.1 °C
same,ΔTm at 10 µM,[5],1.1 °C
same,ΔTm at 10 µM,[6],-0.1 °C
same,ΔTm at 10 µM,[7],-0.9 °C
same,ΔTm at 10 µM,[8],-0.2 °C
same,ΔTm at 10 µM,[9],-0.4 °C
same,ΔTm at 10 µM,[10],0.4 °C
same,ΔTm at 10 µM,[11],0.1 °C
same,ΔTm at 10 µM,[12],0.4 °C
same,ΔTm at 10 µM,[13],0.9 °C
same,ΔTm at 10 µM,[14],0.2 °C
same,ΔTm at 10 µM,[15],-2.4 °C
same,ΔTm at 10 µM,[16],0.3 °C
same,ΔTm at 10 µM,[17],0.3 °C
same,ΔTm at 10 µM,[18],0.1 °C
same,ΔTm at 10 µM,[19],0.1 °C
same,ΔTm at 10 µM,[20],-0.6 °C
same,ΔTm at 10 µM,[21],0.1 °C
same,ΔTm at 10 µM,[22],-0.3 °C
same,ΔTm,[23],> 2 °C
same,ΔTm at 10 µM,[23],3 °C
same,ΔTm at 10 µM,[24],0.2 °C
same,ΔTm at 10 µM,[25],-0.2 °C
same,ΔTm at 10 µM,[26],0.1 °C
same,ΔTm at 10 µM,[27],-0.2 °C
same,ΔTm at 10 µM,[28],0 °C
same,ΔTm at 10 µM,[29],0.9 °C
same,ΔTm at 10 µM,[30],0.8 °C
same,ΔTm at 10 µM,[31],0.2 °C
same,ΔTm at 10 µM,[32],-0.6 °C
same,ΔTm at 10 µM,[33],0.2 °C
same,ΔTm at 10 µM,[34],0.6 °C
same,ΔTm at 10 µM,[35],0 °C
same,ΔTm at 10 µM,[36],-0.5 °C
same,ΔTm at 10 µM,[37],0.2 °C
same,ΔTm at 10 µM,[38],0.1 °C
same,ΔTm at 10 µM,[39],0 °C
same,ΔTm at 10 µM,[40],1.5 °C
